# From the supplement of paper PMC10307832
# Legend:
# Experiment in all cases: relative viability (nuclei count vs DMSO), 5 days (fraction); higher = more cells survive
# AZD8055 + Pictilisib = compound: COc1ccc(-c2ccc3c(N4CCOC[C@@H]4C)nc(N4CCOC[C@@H]4C)nc3n2)cc1CO [AZD8055] + CS(=O)(=O)N1CCN(Cc2cc3nc(-c4cccc5[nH]ncc45)nc(N4CCOCC4)c3s2)CC1 [Pictilisib] (partner 1 µM)
# Summary of the method: (§1)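 For relative viability, nuclei counts in treated wells were divided by those in vehicle wells. Lung cancer cell lines had been pin-tool dosed in 1536-well plates the day after seeding and cultured for 5 days, then fixed and stained in one step (final 0.05% Triton X-100, 1% formaldehyde, 1 ug/ml Hoechst) and imaged at 4×. Doses were one drug alone or a fixed anchor-drug dose plus five library-drug doses (not always all listed) in √10 steps, and values are duplicate-plate medians.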
# AZD8055 + Decitabine = compound: COc1ccc(-c2ccc3c(N4CCOC[C@@H]4C)nc(N4CCOC[C@@H]4C)nc3n2)cc1CO [AZD8055] + Nc1ncn([C@H]2C[C@H](O)[C@@H](CO)O2)c(=O)n1 [Decitabine] (partner 2 µM)
# Summary of the method: as §1
# AZD8055 + Crizotinib = compound: COc1ccc(-c2ccc3c(N4CCOC[C@@H]4C)nc(N4CCOC[C@@H]4C)nc3n2)cc1CO [AZD8055] + C[C@@H](Oc1cc(-c2cnn(C3CCNCC3)c2)cnc1N)c1c(Cl)ccc(F)c1Cl [Crizotinib] (partner 1 µM)
# Summary of the method: as §1
# AZD8055 + Alpelisib = compound: COc1ccc(-c2ccc3c(N4CCOC[C@@H]4C)nc(N4CCOC[C@@H]4C)nc3n2)cc1CO [AZD8055] + Cc1nc(NC(=O)N2CCC[C@H]2C(N)=O)sc1-c1ccnc(C(C)(C)C(F)(F)F)c1 [Alpelisib] (partner 2 µM)
# Summary of the method: as §1
# AZD8055 + Phenformin = compound: COc1ccc(-c2ccc3c(N4CCOC[C@@H]4C)nc(N4CCOC[C@@H]4C)nc3n2)cc1CO [AZD8055] + N=C(N)NC(=N)NCCc1ccccc1 [Phenformin] (partner 250 µM)
# Summary of the method: as §1
# AZD8055 + Lapatinib = compound: COc1ccc(-c2ccc3c(N4CCOC[C@@H]4C)nc(N4CCOC[C@@H]4C)nc3n2)cc1CO [AZD8055] + CS(=O)(=O)CCNCc1ccc(-c2ccc3ncnc(Nc4ccc(OCc5cccc(F)c5)c(Cl)c4)c3c2)o1 [Lapatinib] (partner 2 µM)
# Summary of the method: as §1
# AZD8055 + Olaparib = compound: COc1ccc(-c2ccc3c(N4CCOC[C@@H]4C)nc(N4CCOC[C@@H]4C)nc3n2)cc1CO [AZD8055] + O=C(c1cc(Cc2n[nH]c(=O)c3ccccc23)ccc1F)N1CCN(C(=O)C2CC2)CC1 [Olaparib] (partner 8 µM)
# Summary of the method: as §1
# AZD8055 + Navitoclax = compound: COc1ccc(-c2ccc3c(N4CCOC[C@@H]4C)nc(N4CCOC[C@@H]4C)nc3n2)cc1CO [AZD8055] + CC1(C)CCC(c2ccc(Cl)cc2)=C(CN2CCN(c3ccc(C(=O)NS(=O)(=O)c4ccc(N[C@H](CCN5CCOCC5)CSc5ccccc5)c(S(=O)(=O)C(F)(F)F)c4)cc3)CC2)C1 [Navitoclax] (partner 0.5 µM)
# Summary of the method: as §1
# AZD8055 + Foretinib = compound: COc1ccc(-c2ccc3c(N4CCOC[C@@H]4C)nc(N4CCOC[C@@H]4C)nc3n2)cc1CO [AZD8055] + COc1cc2c(Oc3ccc(NC(=O)C4(C(=O)Nc5ccc(F)cc5)CC4)cc3F)ccnc2cc1OCCCN1CCOCC1 [Foretinib] (partner 0.25 µM)
# Summary of the method: as §1
# AZD8055 + Linsitinib = compound: COc1ccc(-c2ccc3c(N4CCOC[C@@H]4C)nc(N4CCOC[C@@H]4C)nc3n2)cc1CO [AZD8055] + C[C@]1(O)C[C@@H](c2nc(-c3ccc4ccc(-c5ccccc5)nc4c3)c3c(N)nccn32)C1 [Linsitinib] (partner 1 µM)
# Summary of the method: as §1
# AZD8055 = compound: COc1ccc(-c2ccc3c(N4CCOC[C@@H]4C)nc(N4CCOC[C@@H]4C)nc3n2)cc1CO [AZD8055]
# Summary of the method: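 Viability was read as treated-well nuclei divided by vehicle-well nuclei, using the median across plates. Lung cancer cell lines in 1536-well plates were kept overnight at 37 °C, pinned with five √10-spaced library-drug doses, and after 5 days were Hoechst-stained, imaged at 4× and counted in MetaXpress. Plates passed only with control CV below 25% and at least one doubling.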
# AZD8055 + Bortezomib = compound: COc1ccc(-c2ccc3c(N4CCOC[C@@H]4C)nc(N4CCOC[C@@H]4C)nc3n2)cc1CO [AZD8055] + CC(C)C[C@H](NC(=O)[C@H](Cc1ccccc1)NC(=O)c1cnccn1)B(O)O [Bortezomib] (partner 0.002 µM)
# Summary of the method: as §1
cell line,measurement,setting,value
A549,relative viability,AZD8055 + Pictilisib; first compound 0.01 µM,0.395
same,relative viability,AZD8055 + Pictilisib; first compound 0.03162 µM,0.345
same,relative viability,AZD8055 + Pictilisib; first compound 0.1 µM,0.189
same,relative viability,AZD8055 + Pictilisib; first compound 0.3162 µM,0.123
same,relative viability,AZD8055 + Pictilisib; first compound 1 µM,0.105
same,relative viability,AZD8055 + Decitabine; first compound 0.01 µM,0.389
same,relative viability,AZD8055 + Decitabine; first compound 0.03162 µM,0.101
same,relative viability,AZD8055 + Decitabine; first compound 0.1 µM,0.184
same,relative viability,AZD8055 + Decitabine; first compound 0.3162 µM,0.13
same,relative viability,AZD8055 + Decitabine; first compound 1 µM,0.101
same,relative viability,AZD8055 + Crizotinib; first compound 0.01 µM,0.674
same,relative viability,AZD8055 + Crizotinib; first compound 0.03162 µM,0.689
same,relative viability,AZD8055 + Crizotinib; first compound 0.1 µM,0.324
same,relative viability,AZD8055 + Crizotinib; first compound 0.3162 µM,0.231
same,relative viability,AZD8055 + Crizotinib; first compound 1 µM,0.0846
same,relative viability,AZD8055 + Alpelisib; first compound 0.01 µM,0.524
same,relative viability,AZD8055 + Alpelisib; first compound 0.03162 µM,0.373
same,relative viability,AZD8055 + Alpelisib; first compound 0.1 µM,0.223
same,relative viability,AZD8055 + Alpelisib; first compound 0.3162 µM,0.0986
same,relative viability,AZD8055 + Alpelisib; first compound 1 µM,0.109
same,relative viability,AZD8055 + Phenformin; first compound 0.01 µM,0.175
same,relative viability,AZD8055 + Phenformin; first compound 0.03162 µM,0.155
same,relative viability,AZD8055 + Phenformin; first compound 0.1 µM,0.1
same,relative viability,AZD8055 + Phenformin; first compound 0.3162 µM,0.0798
same,relative viability,AZD8055 + Phenformin; first compound 1 µM,0.0524
same,relative viability,AZD8055 + Lapatinib; first compound 0.01 µM,0.801
same,relative viability,AZD8055 + Lapatinib; first compound 0.03162 µM,0.651
same,relative viability,AZD8055 + Lapatinib; first compound 0.1 µM,0.404
same,relative viability,AZD8055 + Lapatinib; first compound 0.3162 µM,0.307
same,relative viability,AZD8055 + Lapatinib; first compound 1 µM,0.122
same,relative viability,AZD8055 + Olaparib; first compound 0.01 µM,0.279
same,relative viability,AZD8055 + Olaparib; first compound 0.03162 µM,0.359
same,relative viability,AZD8055 + Olaparib; first compound 0.1 µM,0.21
same,relative viability,AZD8055 + Olaparib; first compound 0.3162 µM,0.142
same,relative viability,AZD8055 + Olaparib; first compound 1 µM,0.0857
same,relative viability,AZD8055 + Navitoclax; first compound 0.01 µM,1.21
same,relative viability,AZD8055 + Navitoclax; first compound 0.03162 µM,0.74
same,relative viability,AZD8055 + Navitoclax; first compound 0.1 µM,0.454
same,relative viability,AZD8055 + Navitoclax; first compound 0.3162 µM,0.189
same,relative viability,AZD8055 + Navitoclax; first compound 1 µM,0.143
same,relative viability,AZD8055 + Foretinib; first compound 0.01 µM,0.929
same,relative viability,AZD8055 + Foretinib; first compound 0.03162 µM,0.831
same,relative viability,AZD8055 + Foretinib; first compound 0.1 µM,0.638
same,relative viability,AZD8055 + Foretinib; first compound 0.3162 µM,0.123
same,relative viability,AZD8055 + Foretinib; first compound 1 µM,0.0603
same,relative viability,AZD8055 + Linsitinib; first compound 0.01 µM,0.552
same,relative viability,AZD8055 + Linsitinib; first compound 0.03162 µM,0.382
same,relative viability,AZD8055 + Linsitinib; first compound 0.1 µM,0.246
same,relative viability,AZD8055 + Linsitinib; first compound 0.3162 µM,0.11
same,relative viability,AZD8055 + Linsitinib; first compound 1 µM,0.0862
same,relative viability,AZD8055; 0.01 µM,1
same,relative viability,AZD8055; 0.03162 µM,0.83
same,relative viability,AZD8055; 0.1 µM,0.639
same,relative viability,AZD8055; 0.3162 µM,0.19
same,relative viability,AZD8055; 1 µM,0.106
EBC-1,relative viability,AZD8055 + Pictilisib; first compound 0.01 µM,0.303
same,relative viability,AZD8055 + Pictilisib; first compound 0.03162 µM,0.266
same,relative viability,AZD8055 + Pictilisib; first compound 0.1 µM,0.206
same,relative viability,AZD8055 + Pictilisib; first compound 0.3162 µM,0.197
same,relative viability,AZD8055 + Pictilisib; first compound 1 µM,0.19
same,relative viability,AZD8055 + Crizotinib; first compound 0.01 µM,0.155
same,relative viability,AZD8055 + Crizotinib; first compound 0.03162 µM,0.204
same,relative viability,AZD8055 + Crizotinib; first compound 0.1 µM,0.197
same,relative viability,AZD8055 + Crizotinib; first compound 0.3162 µM,0.221
same,relative viability,AZD8055 + Crizotinib; first compound 1 µM,0.219
same,relative viability,AZD8055 + Alpelisib; first compound 0.01 µM,0.827
same,relative viability,AZD8055 + Alpelisib; first compound 0.03162 µM,0.421
same,relative viability,AZD8055 + Alpelisib; first compound 0.1 µM,0.373
same,relative viability,AZD8055 + Alpelisib; first compound 0.3162 µM,0.265
same,relative viability,AZD8055 + Alpelisib; first compound 1 µM,0.259
same,relative viability,AZD8055 + Lapatinib; first compound 0.01 µM,0.214
same,relative viability,AZD8055 + Lapatinib; first compound 0.03162 µM,0.213
same,relative viability,AZD8055 + Lapatinib; first compound 0.1 µM,0.219
same,relative viability,AZD8055 + Lapatinib; first compound 0.3162 µM,0.231
same,relative viability,AZD8055 + Lapatinib; first compound 1 µM,0.199
same,relative viability,AZD8055 + Bortezomib; first compound 0.01 µM,0.485
same,relative viability,AZD8055 + Bortezomib; first compound 0.03162 µM,0.502
same,relative viability,AZD8055 + Bortezomib; first compound 0.1 µM,0.301
same,relative viability,AZD8055 + Bortezomib; first compound 0.3162 µM,0.236
same,relative viability,AZD8055 + Bortezomib; first compound 1 µM,0.224
same,relative viability,AZD8055 + Olaparib; first compound 0.01 µM,0.764
same,relative viability,AZD8055 + Olaparib; first compound 0.03162 µM,0.51
same,relative viability,AZD8055 + Olaparib; first compound 0.1 µM,0.331
same,relative viability,AZD8055 + Olaparib; first compound 0.3162 µM,0.227
same,relative viability,AZD8055 + Olaparib; first compound 1 µM,0.172
same,relative viability,AZD8055 + Navitoclax; first compound 0.01 µM,0.312
same,relative viability,AZD8055 + Navitoclax; first compound 0.03162 µM,0.187
same,relative viability,AZD8055 + Navitoclax; first compound 0.1 µM,0.213
same,relative viability,AZD8055 + Navitoclax; first compound 0.3162 µM,0.182
same,relative viability,AZD8055 + Navitoclax; first compound 1 µM,0.205
same,relative viability,AZD8055 + Foretinib; first compound 0.01 µM,0.102
same,relative viability,AZD8055 + Foretinib; first compound 0.03162 µM,0.126
same,relative viability,AZD8055 + Foretinib; first compound 0.1 µM,0.116
same,relative viability,AZD8055 + Foretinib; first compound 0.3162 µM,0.114
same,relative viability,AZD8055 + Foretinib; first compound 1 µM,0.127
same,relative viability,AZD8055 + Linsitinib; first compound 0.01 µM,1.06
same,relative viability,AZD8055 + Linsitinib; first compound 0.03162 µM,0.724
same,relative viability,AZD8055 + Linsitinib; first compound 0.1 µM,0.437
same,relative viability,AZD8055 + Linsitinib; first compound 0.3162 µM,0.235
same,relative viability,AZD8055 + Linsitinib; first compound 1 µM,0.16
same,relative viability,AZD8055; 0.01 µM,1.11
same,relative viability,AZD8055; 0.03162 µM,0.828
same,relative viability,AZD8055; 0.1 µM,0.609
same,relative viability,AZD8055; 0.3162 µM,0.244
same,relative viability,AZD8055; 1 µM,0.205
